Measurements reported in ChEMBL document CHEMBL3885861, “Open TG-GATES”.

Species on record: Rattus norvegicus
Experiment: Open TG-GATES - Regimen: Single
Format: toxicity, organism-based, Sprague-Dawley
Set-up: regimen Single, gender Male, age 6 weeks
Settings: in vivo, po, 0 mg/kg, route gavage, dose level Control; for APTT / Bas / Eos / Fbg / Hb / Ht / Lym / MCH / MCHC / MCV / Mono / Neu / PT / Plat / RBC / Ret / WBC: tissue Blood; for KIDNEY_L / KIDNEY_R / KIDNEY_TOTAL: tissue Kidney; for LIVER: tissue Liver; for A/G / ALP / ALT / AST / BUN / CRE / Ca / Cl / DBIL / GLC / IP / K / LDH / Na / PL / RALB / TBIL / TC / TG / TP / gamma-GTP: tissue Plasma

Cc1cccc(Nc2ccccc2C(=O)O)c1C [MEFENAMIC ACID]
TERMINAL_BW (3 h): 216.3 g | APTT (3 h): 18.2 s | Bas (3 h): 0% | Eos (3 h): 1% | Fbg (3 h): 217.8 mg/dL | Hb (3 h): 13.2 g/dL | Ht (3 h): 37.1% | Lym (3 h): 77.8% | MCH (3 h): 21.9 pg | MCHC (3 h): 35.5% | MCV (3 h): 61.9 fL | Mono (3 h): 2.4% | Neu (3 h): 16.4% | PT (3 h): 12.4 s | Plat (3 h): 117.6 x10_4/uL | RBC (3 h): 600.2 x10_4/ul | Ret (3 h): 7.4% | WBC (3 h): 74.9 x10_2/uL | KIDNEY_L (3 h): 1 g | KIDNEY_R (3 h): 1 g | KIDNEY_TOTAL (3 h): 1.9 g | LIVER (3 h): 9.7 g | A/G (3 h): 1.7 | ALP (3 h): 1061 IU/L | ALT (3 h): 35 IU/L | AST (3 h): 67 IU/L | BUN (3 h): 10.8 mg/dL | CRE (3 h): 0.4 mg/dL | Ca (3 h): 10.9 mg/dL | Cl (3 h): 103 meq/L | DBIL (3 h): 0.078 mg/dL | GLC (3 h): 190.4 mg/dL | IP (3 h): 9 mg/dL | K (3 h): 4.1 meq/L | LDH (3 h): 213 IU/L | Na (3 h): 140.8 meq/L | PL (3 h): 145.8 mg/dL | RALB (3 h): 3.5 g/dL | TBIL (3 h): 0.1 mg/dL | TC (3 h): 80 mg/dL | TG (3 h): 49 mg/dL | TP (3 h): 5.6 g/dL | gamma-GTP (3 h): 1.2 IU/L | TERMINAL_BW (6 h): 214.5 g | APTT (6 h): 18.6 s | Bas (6 h): 0% | Eos (6 h): 1% | Fbg (6 h): 219.4 mg/dL | Hb (6 h): 13.2 g/dL | Ht (6 h): 37.2% | Lym (6 h): 80.6% | MCH (6 h): 22 pg | MCHC (6 h): 35.5% | MCV (6 h): 61.9 fL | Mono (6 h): 2.4% | Neu (6 h): 15% | PT (6 h): 13 s | Plat (6 h): 107.7 x10_4/uL | RBC (6 h): 601.8 x10_4/ul | Ret (6 h): 7.8% | WBC (6 h): 87.4 x10_2/uL | KIDNEY_L (6 h): 1 g | KIDNEY_R (6 h): 1 g | KIDNEY_TOTAL (6 h): 2 g | LIVER (6 h): 8.8 g | A/G (6 h): 1.6 | ALP (6 h): 898.6 IU/L | ALT (6 h): 36.8 IU/L | AST (6 h): 65.4 IU/L | BUN (6 h): 8.6 mg/dL | CRE (6 h): 0.3 mg/dL | Ca (6 h): 10.3 mg/dL | Cl (6 h): 102.8 meq/L | DBIL (6 h): 0.062 mg/dL | GLC (6 h): 183.4 mg/dL | IP (6 h): 8.9 mg/dL | K (6 h): 4.2 meq/L | LDH (6 h): 172 IU/L | Na (6 h): 139.6 meq/L | PL (6 h): 134.6 mg/dL | RALB (6 h): 3.3 g/dL | TBIL (6 h): 0.1 mg/dL | TC (6 h): 79.4 mg/dL | TG (6 h): 39.8 mg/dL | TP (6 h): 5.4 g/dL | gamma-GTP (6 h): 1 IU/L | TERMINAL_BW (9 h): 214.7 g | APTT (9 h): 18.8 s | Bas (9 h): 0% | Eos (9 h): 1% | Fbg (9 h): 228.8 mg/dL | Hb (9 h): 13.6 g/dL | Ht (9 h): 38.3% | Lym (9 h): 78.6% | MCH (9 h): 22.2 pg | MCHC (9 h): 35.6% | MCV (9 h): 62.6 fL | Mono (9 h): 2.2% | Neu (9 h): 17.2% | PT (9 h): 12.8 s | Plat (9 h): 106.8 x10_4/uL | RBC (9 h): 613 x10_4/ul | Ret (9 h): 7.1% | WBC (9 h): 75.3 x10_2/uL | KIDNEY_L (9 h): 1 g | KIDNEY_R (9 h): 1 g | KIDNEY_TOTAL (9 h): 2 g | LIVER (9 h): 8.7 g | A/G (9 h): 1.7 | ALP (9 h): 891.2 IU/L | ALT (9 h): 32.6 IU/L | AST (9 h): 64.2 IU/L | BUN (9 h): 10.6 mg/dL | CRE (9 h): 0.3 mg/dL | Ca (9 h): 10.4 mg/dL | Cl (9 h): 102.8 meq/L | DBIL (9 h): 0.074 mg/dL | GLC (9 h): 202.6 mg/dL | IP (9 h): 8.9 mg/dL | K (9 h): 3.8 meq/L | LDH (9 h): 187.4 IU/L | Na (9 h): 141 meq/L | PL (9 h): 136.4 mg/dL | RALB (9 h): 3.5 g/dL | TBIL (9 h): 0.1 mg/dL | TC (9 h): 75.2 mg/dL | TG (9 h): 55.4 mg/dL | TP (9 h): 5.6 g/dL | gamma-GTP (9 h): 1 IU/L | TERMINAL_BW (24 h): 229.4 g | APTT (24 h): 18 s | Bas (24 h): 0% | Eos (24 h): 1% | Fbg (24 h): 214.8 mg/dL | Hb (24 h): 13.4 g/dL | Ht (24 h): 38.5% | Lym (24 h): 79.2% | MCH (24 h): 22.4 pg | MCHC (24 h): 34.8% | MCV (24 h): 64.2 fL | Mono (24 h): 2% | Neu (24 h): 16.4% | PT (24 h): 12 s | Plat (24 h): 116.5 x10_4/uL | RBC (24 h): 599.6 x10_4/ul | Ret (24 h): 6.7% | WBC (24 h): 80 x10_2/uL | KIDNEY_L (24 h): 1 g | KIDNEY_R (24 h): 1 g | KIDNEY_TOTAL (24 h): 2.1 g | LIVER (24 h): 11.1 g | A/G (24 h): 1.5 | ALP (24 h): 943.6 IU/L | ALT (24 h): 39 IU/L | AST (24 h): 66 IU/L | BUN (24 h): 13.6 mg/dL | CRE (24 h): 0.4 mg/dL | Ca (24 h): 10.9 mg/dL | Cl (24 h): 102.8 meq/L | DBIL (24 h): 0.1 mg/dL | GLC (24 h): 193.2 mg/dL | IP (24 h): 7.9 mg/dL | K (24 h): 4.1 meq/L | LDH (24 h): 223.6 IU/L | Na (24 h): 140.2 meq/L | PL (24 h): 147.8 mg/dL | RALB (24 h): 3.4 g/dL | TBIL (24 h): 0.2 mg/dL | TC (24 h): 74.6 mg/dL | TG (24 h): 120.4 mg/dL | TP (24 h): 5.7 g/dL | gamma-GTP (24 h): 1.4 IU/L
